Columns and labels:
[1] = test system: mouse model of hair growth; assay: Mouse model of hair growth, Study 10-06 (Test Two); format: in vivo
Description: FIGS. 6 through 8 show the results of a separate testing (Test Two) of synergistic composition of the invention in the same mouse model of hair growth, with FIG. 6 being the Vehicle, FIG. 7 being 0.03% Bimatoprost, alone, and FIG. 8 being the synergistic composition, i.e. 0.03% Bimatoprost and 5% Rogaine (minoxidil).

[2] = test system: mouse model for hair growth; assay: Mouse model for hair growth, Study 10-04 (Test One); format: in vivo; conditions: compared with vehicle or single agents
Description: A comparison of topical compositions comprising bimatoprost or minoxidil, alone, and the combination of bimatoprost and minoxidil, in a single composition, with the vehicle, for onset of hair growth and full hair growth, in a mouse model for hair growth, gave the results summarized in Table 1, below, and FIG. 5.

Row | SMILES | full hair growth (in words, comparison) ([1]; compared with vehicle) | onset of hair growth (in words, comparison) ([1]; compared with vehicle or bimatoprost alone) | full hair growth (in words, comparison) [2] | onset of hair growth (in words, comparison) [2]
1 | CCNC(=O)CCC/C=C\C[C@@H]1[C@@H](/C=C/[C@@H](O)CCc2ccccc2)[C@H](O)C[C@@H]1O [BIMATOPROST 0.03%, cyclopentane N-ethyl heptanamide-5-cis-2-(3α-hydroxy-5-phenyl-1-trans-pentenyl)-3,5-dihydroxy, [1α,2α,3α,5α]] | did not obtain the result of full hair growth faster then the vehicle | faster onset of hair growth | did not obtain the result of full hair growth faster then the vehicle | faster onset of hair growth
2 | Nc1cc(N2CCCCC2)nc(N)[n+]1[O-] [MINOXIDIL 5%, minoxidil] | – | – | did not obtain the result of full hair growth faster then the vehicle | faster onset of hair growth

— patent US20180110711A1, “METHOD OF ENHANCING HAIR GROWTH” (Allergan, Inc., priority 2011, published 2018)
